Measurements from patent US20260240976A1, “T[…] VACCINES BASED ON VALIDATED TARGET EPITOPES” (Deutsches Krebsforschungszentrum Stiftung des öffentlichen …, priority 2023, published 2026).
Where a SMILES comes first, the peptide text is derived from it.

Experiments:
HPV16-positive cells = test: Cytotoxicity assay (VITAL FR / live-cell imaging-based) with peptide-specific CD8+ T cells; parameters: species or system human; key: +: cytotox: Ability of peptide-specific T cells to kill HPV16-positive cells.; +*: *highlights data from published resources.; *highlights data from published resources
Method: The flow cytometry based VITAL FR cytotoxicity assay was used as published by Stanke et al. (Stanke et al., 2010) to assess whether peptide-specific T cells are able to specifically kill HPV-transformed target cells. Briefly, two HLA-A2+ cell lines, a HPV16-negative (HPV16−) control cell line (C33A) and a HPV16-positive (HPV16+) target cell line (CaSki) were fluorescently labeled with either FarRed or CFSE and were co-incubated with peptide-specific CD8+ T cells as effector cells. After 48 h co-incubation, the fluorescently labeled cells were analyzed by flow cytometry to determine the surviving cells and calculate the specific cytolytic function of the effector cells by the ratio of target and control cells.
CaSki and C33A cells were fluorescently labeled with CFSE and FarRed, respectively. Cells of both cell lines were harvested and resuspended in plain RPMI medium at a concentration of 1×10^6 cells/mL. For cell labeling, 5 μM CSFE were added to CaSki cells and 0.25 μM FarRed were added to C33A cells. The cells were incubated at 37° C. and the reaction was stopped after 10 min by addition of 50 mL RPMI with 10% FBS. The cells were centrifuged at 300×g for 5 min, the supernatant was discarded and the cells were resuspended in their cell culture medium. The labeled cells were seeded in T25 cell culture flasks with 1-2×10^6 cells/flask.
On the next day, the labeled CaSki and C33A as well as the epitope-specific semi-long-term T cell lines (described in 1.6) were harvested. CD8+ T cells were isolated from the epitope-specific semi-long-term T cell lines using the MACS CD8+ T cell isolation kit (Miltenyi Biotec) according to the manufacturer's protocol for LS columns. The CD8+ T cells were resuspended in T cell medium and added to wells of a F-bottom 96-well plate in serial dilutions to achieve triplicates of 6×10^4, 3×10^4, 1.5×10^4, 0.75×10^4 and 0.375×10^4 cells per well. The CaSki and C33A cells were mixed 1:1 in T cell medium and 3×10^3 cells were added to each well containing T cells. Thereby effector:target (E:T) ratios of […] were achieved. Additionally, triplicates of mixed target cells without T cells were seeded, which is referred to as E:T 0. After 48 h incubation at 37° C., 5% C02, the cells were harvested and analyzed at a BD FACS Canto™ II analyzer using the BD FACS Diva Software Version 6. The obtained data were analyzed with the FlowJo software Version 10 by applying the same gating strategy to all samples. Subsequently, the equations (1) and (2) given below were applied in Excel (Microsoft Office 2016) to calculate specific killing.
Semi long-term T cell lines were set up to obtain high numbers of T cells, which are required for the analysis of epitope specific cytotoxic T cell responses in VITAL FR cytotoxicity assays. Autologous DCs were generated from PBMCs as described in 1.7 and loaded with the desired HPV16 peptide. PBMCs of the same donor were thawed and resuspended in T cell medium supplemented with rhIL-7 (10 ng/mL) and rhIL-15 (20 ng/mL). 1×10^7 PBMCs/well were seeded to a 24-well plate in a total volume of 1 mL/well. Peptide-loaded DCs were added in a ratio of 50:1 (PBMCs:DCs) in 1 mL rhIL-7 (10 ng/mL) and rhIL-15 (20 ng/mL) supplemented T cell medium to achieve a final volume of 2 mL. The cell cultures were fed with rhIL-2 (final concentration: 40 U/mL) every other day. If the medium turned yellow the feeding was combined with a half medium change with 1 mL fresh IL-2 supplemented T cell medium. After eight days, the peptide stimulation with peptide-loaded DCs was repeated and cultivation was continued. On day 15, the T cell lines were harvested and used for CD8+ T cell isolation and cytotoxicity assays.
In addition to the VITAL FR assay described herein above, a newly established live-cell imaging-based cytotoxicity assay was applied. […]

[1] = test system: short-term antigen-specific T cell lines generated from PBMCs; test: Interferon-γ ELISpot assay on short-term antigen-specific T cell lines; type: cell-based, human; details: HLA restriction A24

Compound	cytotox: Ability of peptide-specific T cells to kill HPV16-positive cells (HPV16-positive cells; HLA restriction A24)	ELISpot: Immungenicity of the peptide shown by IFN-gamma ELISPOT analysis [1]	cytotox: Ability of peptide-specific T cells to kill HPV16-positive cells (HPV16-positive cells; HLA restriction A02)
83 (TFCCKCDSTL; Human papillomavirus 16) [compound 83]	+	+	
CC[C@H](C)[C@H](NC(=O)[C@H](CC(=O)O)NC(=O)[C@H](Cc1c[nH]cn1)NC(=O)[C@@H](NC(=O)[C@@H](NC(=O)[C@@H](N)[C@@H](C)O)[C@@H](C)O)[C@@H](C)CC)C(=O)N[C@H](C(=O)N[C@@H](CC(C)C)C(=O)N[C@@H](CCC(=O)O)C(=O)N[C@@H](CS)C(=O)N[C@H](C(=O)O)C(C)C)[C@@H](C)CC [compound 49] (H-TTIHDIILECV-OH)			+
CC[C@H](C)[C@H](N)C(=O)N[C@@H](CCCNC(=N)N)C(=O)N[C@H](C(=O)N[C@@H](CC(C)C)C(=O)N[C@@H](CCC(=O)O)C(=O)N[C@@H](CC(=O)O)C(=O)N[C@@H](CC(C)C)C(=O)N[C@@H](CC(C)C)C(=O)N[C@@H](CCSC)C(=O)NCC(=O)N[C@H](C(=O)O)[C@@H](C)O)[C@@H](C)O [compound 52] (H-IRTLEDLLMGT-OH)			+
